From patent US10704076B2, “Multi-tiered high through-put screen for compounds effective against bacterial biofilm and compounds effective for inhibiting and eradicating bacterial biofilm” (University of Cincinnati, priority 2013, dated 2020)
Entries after “also recorded” stand apart in the source; their conditions may differ.

How the values were obtained:
A. baumannii = test: HTS total bacterial growth assay (optical density OD560); type: cell-based, Acinetobacter baumannii; details: 10 point dose-response 0.1-50 μM, NS* = no sigmoid curve observed; for AC50: Acinetobacter baumannii, read-out: Total Bacteria Growth AC50
Description: (§1) Each HTS tier consisted of: (i) primary screening, (ii) confirmation screening and (iii) dose-response curve screening. Each tier of HTS included three distinct biological process assays. The first assay was an optical density measurement of bacteria growth in the presence of each compound reported as a total bacteria growth. In the second assay, resazurin solution was used as an indicator of metabolic activity to measure the live bacteria in the biofilms, reported as live biofilm. The final assay was crystal violet staining, which indicated the amount of biofilm formation and the effect of each compound on this process, reported as total biofilm formation.
(§2) Briefly, stationary phase bacteria grown in L-broth were diluted 1:200 into fresh L-broth and 50 μM of each test compound. After 20-24 hours, the optical density (OD560) of each suspension was measured using Zeiss Plate::Vision with a 560 BP filter (560 nm, 2.5% light intensity, 1 mm focus to bottom of plate, and exposure time of 100 ms). To measure bacterial viability in the biofilm, 50 μl of a 5 mg/ml resazurin solution in L-broth was added to each well after washing 3 times with 50 μl of PBS. The plates were then incubated at 37° C. for 30 or 180 min for A. baumannii and P. aeruginosa biofilms, respectively. Fluorescence was measured using Zeiss Plate::Vision at excitation and emission wavelengths of 535 and 580 nm, 100 ms exposure time, 2.5% intensity and a 2 mm focus to the bottom of the biofilms. To assess biofilm formation, plates were washed 3 times with PBS and then 50 μl of 0.01% of crystal violet was added to each well to assess bacterial biofilm formation as described in a similar borosilicate tube assay by O'Toole and Kolter. After incubation at room temperature for 30 min and removal of the crystal violet solution by washing with PBS, 95% ethanol was added to solubilize the crystal violet followed by incubation for 20 min at room temperature. Finally, the optical density of each plate was determined using measured by Zeiss Plate::Vision using the same settings used to measure total bacterial growth. These 3 steps were used in each of the three tiers for the HTS process: (i) single point primary screening at 10 μM, (ii) triplicate confirmation of hits from (i) at 10 μM and (iii) determination of AC50 values in 10 point dose-response at a concentration range of 0.1-50 μM) in hits from (ii). The AC50 represents the concentration of compound that inhibits 50% of bacterial growth, bacterial viability, or biofilm formation. Genedata Screener® Assay Analyzer Software (Ver. 9.0.0 Standard) was used to analyze data from all assay tiers. Compounds with an AC50 of less than 20 μM in one of the biological assays from the dose response screen were subject to additional investigation.

A. baumannii biofilm [1] = test: HTS live biofilm assay (resazurin metabolic activity); type: cell-based, Acinetobacter baumannii; details: Acinetobacter baumannii, 10 point dose-response 0.1-50 μM
Description: as §1, §2

A. baumannii biofilm [2] = test: HTS total biofilm formation assay (crystal violet staining); type: cell-based, Acinetobacter baumannii; details: Acinetobacter baumannii, 10 point dose-response 0.1-50 μM
Description: as §1, §2

[3] = system: A. baumannii established biofilm; test: CLSM, effect of compound on the pre-existing biofilm; type: cell-based, Acinetobacter baumannii; details: 24 hr; for killing of established A. baumannii biofilm (CLSM, in words): 300 μM; for Effect of compound on the pre-existing biofilm: Killing: Y / —
Description: (§3) Broad spectrum agents (effective against all three bacterial species) and single agent compounds identified as HTS hits were investigated with CLSM confirmation of inhibition of biofilm formation (culture of bacteria with compounds) or killing of bacteria residing within an established biofilm (compound addition after culturing biofilm). To evaluate inhibition of P. aeruginosa biofilms, bacteria were sub-cultured into 10% L-broth and grown at 37° C. until the OD600 reached 0.25. The bacteria were further diluted 1:100 into a modified 0.5×M63 minimum media (50 mM KH2PO4, 7.5 mM (NH4)2SO4, 9 μM FeSO4, 0.5% casamino acids, 0.2% glucose, and 1 mM MgSO4). A. baumannii biofilms were also grown in 10% L-broth until the OD600 reached 0.05 but diluted 1:10 into 5% L-broth media. S. epidermidis biofilm cultures were grown. Briefly, the bacteria were grown in TSB until the OD600 reached 0.75, and a 1:100 dilution of the bacteria was sub-cultured into phosphate buffered saline (PBS). All of the biofilm bacterial cultures were grown in 96-well plate chambers (MatTek Corp., Ashland, Mass.) in the presence of 10 μM of each compound or DMSO as a control and incubated for 18 hrs at 37° C. To investigate the ability of compounds to kill bacteria within pre-existing biofilms, biofilms were grown under the same conditions, but without test compound. These biofilms were washed once with PBS and incubated an additional 24 hr at 37° C. in PBS containing 300 μM of each compound. All biofilm cultures were then washed twice with 100 μL of PBS and stained using the LIVE/DEAD® BacLight™ Bacterial Viability Kit (Invitrogen). Finally, biofilm images were obtained using a Zeiss LSM510 META Confocal Microscope (Carl Zeiss, Inc., Germany). A 488 nm laser was used in conjunction with a Plan-Apochromat 100×/1.4 Oil DIC objective. Z-stacks were 8 bit and measured 127.3 μm×127.3 μm×16.0 μm in size. The filters used were 505-530 and 620-680 IR, as the excitation and emission wavelengths for red fluorescence are 490 nm and 635 nm, respectively, and 480 nm and 500 nm for green fluorescence. Three dimensional images were generated using the “Projection” ability on LSM Image Browser software (v.1.4.0.121) or Zeiss LSM image browser software version 3.5 (Carl Zeiss, Inc., Germany), and Live/Dead calculations were conducted based upon these images using MacBiophotonics ImageJ following the guidelines in the cell counting guide by C. Labno {Rasband, 1997-2011 #25; Labno, #2} at the University of Chicago Integrated Light Microscopy Core. The thickness of the biofilm was calculated using Comstat software. A hit was defined as a >50% dead to live ratio.
(§4) The CLSM experiment was performed in one or two or all bacteria used in this study depending on its activity. For the validation of HTS hits, 10 μM of compound was added to each bacterial suspension and the resulting biofilm stained with LIVE/DEAD® BacLight™ Bacterial Viability Kit. The images were analyzed to determine the live and dead ratios of biofilm bacteria, the thickness of biofilms, and structural attributes of biofilms.

P. aeruginosa biofilm [4] = test: CLSM, co-culture of bacteria with compound (inhibition of biofilm formation); type: cell-based, Pseudomonas aeruginosa
Description: as §3, §4

P. aeruginosa biofilm [5] = test: HTS live biofilm assay (resazurin metabolic activity); type: cell-based; details: Pseudomonas aeruginosa, 10 point dose-response 0.1-50 μM
Description: as §1, §2

P. aeruginosa = test: HTS total bacterial growth assay (optical density OD560); type: cell-based, Pseudomonas aeruginosa; details: Pseudomonas aeruginosa, 10 point dose-response 0.1-50 μM, read-out: Total Bacteria Growth AC50
Description: as §1, §2

P. aeruginosa biofilm [6] = test: HTS total biofilm formation assay (crystal violet staining); type: cell-based, Pseudomonas aeruginosa; details: Pseudomonas aeruginosa, 10 point dose-response 0.1-50 μM
Description: as §1, §2

A. baumannii biofilm [7] = test: CLSM, co-culture of bacteria with compound (inhibition of biofilm formation); type: cell-based, Acinetobacter baumannii; details: for killing of residential bacteria, co-culture (CLSM, in words): 10 μM; for Co-culture of bacteria with compound: Killing: CLSM, 10 μM compound, 18 hrs, Y / —
Description: as §3, §4

Compound: Oc1ccc2c(c1O)O[C@@]13NC(=S)N[C@@H](c4ccccc4)[C@H]1CCC[C@H]3[C@H]2c1ccccc1 (relative stereo) [Compound 24, (4R,4aR,7aS,8S,13aR)-rel-3,4,4a,5,6,7,7a,8-octahydro-11,12-dihydroxy-4,8-diphenyl-[1]Benzopyrano[3,2-i]quinazoline-2(1H)-thione]
- AC50 (A. baumannii): > 200 µM
- AC50 (A. baumannii biofilm [1]): 1.13 µM
- AC50 (A. baumannii biofilm [2]): 3.75 µM
- killing of established A. baumannii biofilm (CLSM, in words) [3]: demonstrated killing of established biofilm culture; also recorded: effective against biofilm resident A. baumannii
- Effect of compound on the pre-existing biofilm: Killing ([3]; CLSM, 300 μM compound): Y (A hit was defined as a >50% dead to live ratio)

Compound: O=C(O)c1cn(-c2ccc(F)cc2F)c2nc(N3CCC(O)CC3)c(F)cc2c1=O [Compound 14, 1-(2,4-difluorophenyl)-6-fluoro-1,4-dihydro-4-oxo-7-(4-hydroxy-1-piperidinyl)-1,8-Naphthyridine-3-carboxylic acid]
- killing of residential bacteria, co-culture (CLSM, in words) (P. aeruginosa biofilm [4]; 10 μM): lethal to residential bacteria
- Co-culture of bacteria with compound: Killing (P. aeruginosa biofilm [4]; CLSM, 10 μM compound, 18 hrs, Y / —): Y (A hit was defined as a >50% dead to live ratio)
- AC50 (P. aeruginosa biofilm [5]): 80.1 µM
- AC50 (P. aeruginosa): 13.6 µM
- AC50 (P. aeruginosa biofilm [6]): 13 µM

Compound: O/N=C1/C=Cc2[nH]c(-c3ccccc3)cc2/C1=N/O [Compound 18, N-(4-nitroso-2-phenyl-1H-indol-5-yl)hydroxylamine]
- AC50 (A. baumannii): 17.7 µM
- killing of residential bacteria, co-culture (CLSM, in words) (A. baumannii biofilm [7]): effective in killing the bacterium
- Co-culture of bacteria with compound: Killing (A. baumannii biofilm [7]): Y (A hit was defined as a >50% dead to live ratio)
- AC50 (A. baumannii biofilm [1]): 4.53 µM
- AC50 (A. baumannii biofilm [2]): 14.6 µM
- killing of established A. baumannii biofilm (CLSM, in words) [3]: demonstrated killing of established biofilm culture; also recorded: effective against biofilm resident A. baumannii
- Effect of compound on the pre-existing biofilm: Killing ([3]; CLSM, 300 μM compound): Y (A hit was defined as a >50% dead to live ratio)

Compound: Nc1nonc1-c1nc2ccccc2n1CC(=O)N/N=C/c1cc(Br)cc(Br)c1O [Compound 21, 2-[2-(4-amino-1,2,5-oxadiazol-3-yl)-1H-benzimidazol-1-yl]-N′-[(E)-(3,5-dibromo-2-hydroxyphenyl)methylidene]acetohydrazide]
- Total Bacteria Growth AC50 (A. baumannii): NS*
- AC50 (A. baumannii biofilm [1]): 9.86 µM
- AC50 (A. baumannii biofilm [2]): 14.6 µM

Compound: O=C(N/N=C/c1cc(Br)c(O)cc1O)c1cc2c(ccc3ccccc32)o1 [Compound 23, N′-[(E)-(5-Bromo-2,4-dihydroxyphenyl)methylene]naphtho[2,1-b]furan-2-carbohydrazide]
- AC50 (A. baumannii): > 200 µM
- AC50 (A. baumannii biofilm [1]): 8.97 µM
- AC50 (A. baumannii biofilm [2]): 17.5 µM

Compound: CCCCC(C(=O)N/N=C/c1cc(Br)ccc1O)C(=O)N/N=C/c1cc(Br)ccc1O [Compound 25, N′1,N′3-Bis [(E)-(5-bromo-2-hydroxyphenyl)methylene]-2-butylmalonohydrazide]
- AC50 (A. baumannii): > 200 µM
- AC50 (A. baumannii biofilm [1]): 1.26 µM
- AC50 (A. baumannii biofilm [2]): 5.11 µM

Compound: Cc1n[nH]c(O)c1C(c1cccc(OCc2ccc(Cl)c(Cl)c2)c1)c1c(C)n[nH]c1O [Compound 26, 4-[{3-[(3,4-dichlorobenzyl)oxy]phenyl}(5-hydroxy-3-methyl-1H-pyrazol-4-yl)methyl]-3-methyl-1H-pyrazol-5-ol]
- Total Bacteria Growth AC50 (A. baumannii): NS*
- AC50 (A. baumannii biofilm [1]): 8.07 µM
- AC50 (A. baumannii biofilm [2]): 7.6 µM
- killing of established A. baumannii biofilm (CLSM, in words) [3]: demonstrated killing of established biofilm culture; also recorded: effective against biofilm resident A. baumannii
- Effect of compound on the pre-existing biofilm: Killing ([3]; CLSM, 300 μM compound): Y (A hit was defined as a >50% dead to live ratio)

Compound: Oc1c(Cl)cc(Cl)c(Cl)c1-c1nc2ccccc2[nH]1 [Compound 29, 2-(1H-benzoimidazol-2-YL)-3,4,6 Trichlrophenol]
- Total Bacteria Growth AC50 (A. baumannii): NS*
- AC50 (A. baumannii biofilm [1]): > 200 µM
- AC50 (A. baumannii biofilm [2]): 8.37 µM

Compound: CCCCOC(=O)C(=O)CC(=O)/C=C/c1ccccc1 [Compound 30, Butyl (E)-2,4-dioxo-6-phenylhex-5-enoate]
- Total Bacteria Growth AC50 (A. baumannii): NS*
- AC50 (A. baumannii biofilm [1]): 2.35 µM
- AC50 (A. baumannii biofilm [2]): 8.54 µM

Compound: Oc1c(I)cc(I)cc1/C=N/c1ccc2[nH]c(-c3ccccc3)nc2c1 [Compound 31]
- AC50 (A. baumannii): > 200 µM
- killing of residential bacteria, co-culture (CLSM, in words) (A. baumannii biofilm [7]): effective in killing the bacterium
- Co-culture of bacteria with compound: Killing (A. baumannii biofilm [7]): Y (A hit was defined as a >50% dead to live ratio)
- AC50 (A. baumannii biofilm [1]): 17.4 µM
- AC50 (A. baumannii biofilm [2]): 23.5 µM
- killing of established A. baumannii biofilm (CLSM, in words) [3]: demonstrated killing of established biofilm culture; also recorded: demonstrated ability in killing; also recorded: effective against biofilm resident A. baumannii
- Effect of compound on the pre-existing biofilm: Dispersion ([3]; CLSM, 300 μM compound): did demonstrate dispersion activity
- Effect of compound on the pre-existing biofilm: Killing ([3]; CLSM, 300 μM compound): Y (A hit was defined as a >50% dead to live ratio)

Compound: O=C(N/N=C/c1ccc(O)cc1O)c1cc(-c2ccccc2)nc2ccccc12 [Compound 33, N′-(2,4-dihydroxybenzylidene)-2-phenylquinoline-4-carbohydrazide]
- AC50 (A. baumannii): > 200 µM
- AC50 (A. baumannii biofilm [1]): 7.28 µM
- AC50 (A. baumannii biofilm [2]): 17.2 µM

Compound: C=CCSC1=NC(C)(C)CC2(CC(c3ccccc3)c3ccc(O)c(O)c3O2)N1 (stereo not drawn) [Compound 34, 3,4,5′,6′-tetrahydro-6′,6′-dimethyl-4-phenyl-2′-(2-propen-1-ylthio)-spiro[2H-1-benzopyran-2,4′(3′H)-pyrimidine]-7,8-diol]
- killing of residential bacteria, co-culture (CLSM, in words) (A. baumannii biofilm [7]): effective in killing the bacterium
- killing of established A. baumannii biofilm (CLSM, in words) [3]: effective against biofilm resident A. baumannii

Compound: N-2-(4-methoxybenzothiazolyl)-2,3-dihydro-4-Methyl-5-oxo-1H,5HBenzo[ij]quinolizine-6-carboxamide [Compound 28]
- killing of established A. baumannii biofilm (CLSM, in words) [3]: effective against biofilm resident A. baumannii
